# According to US20250353891A1 (MEDIMMUNE LIMITED, priority 2022, published 2025):
# Starred links: 1 amine or outer side, 2 acyl side, 3 side chain; linkers in the order of their positions; H or OH if unused. Non-standard residues stand in square brackets, D forms with d. Residues, ends and D or L forms follow the SMILES beside them. Groups on a side chain read outwards from the residue. *: point of attachment. C18 diacid = O=C(O)CCCCCCCCCCCCCCCCC(=O)*; γGlu = O=C(O)[C@H](CCC(=O)[*:2])N[*:1]; αMeF = C[C@](N)(Cc1ccccc1)C(=O)O; PEG4 = NCCOCCOCCOCCOCCC(=O)O; AEEA = NCCOCCOCC(=O)O; Aib = CC(C)(N)C(=O)O
# Assays:
# [1] = target: human GLP-1 receptor (hGLP-1R) (Homo sapiens, UniProt P43220); test: cAMP production (HTRF) in CHO cells expressing hGLP-1R; type: cell-based; design: expressed in transfected cells; conditions: for EC50: Table 7, peptides modified at position 20, cAMP in CHO hGLP-1R cells, geometric mean, read-out: hGLP-1R EC50; for % Relative Potency Ratio: Table 7, % GLP-1R activity relative to GLP-1 / % GlucR activity relative to glucagon
# Sequence of human GLP-1 receptor (hGLP-1R) (P43220 24-463): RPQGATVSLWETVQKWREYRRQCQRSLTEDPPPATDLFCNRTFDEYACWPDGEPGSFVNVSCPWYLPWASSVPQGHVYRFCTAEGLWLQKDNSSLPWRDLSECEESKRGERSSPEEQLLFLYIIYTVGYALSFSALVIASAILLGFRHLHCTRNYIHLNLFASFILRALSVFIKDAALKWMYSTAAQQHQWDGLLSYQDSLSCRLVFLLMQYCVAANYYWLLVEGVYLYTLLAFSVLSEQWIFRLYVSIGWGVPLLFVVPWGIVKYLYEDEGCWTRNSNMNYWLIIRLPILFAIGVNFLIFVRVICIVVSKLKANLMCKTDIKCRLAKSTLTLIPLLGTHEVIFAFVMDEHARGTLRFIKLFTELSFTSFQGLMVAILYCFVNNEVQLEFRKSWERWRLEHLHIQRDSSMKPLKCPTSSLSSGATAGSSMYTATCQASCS
# Procedure, shortened: (§1)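 Potency values represent EC50 from 4-parameter logistic curves of HTRF % Delta F signal. Receptor-expressing CHO cells (hGCGR 2×10^5 cells/mL, hGLP-1R 1×10^5 cells/mL) were exposed for 30 min at room temperature before two-step cAMP detection.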
# [2] = target: human glucagon receptor (hGCGR) (Homo sapiens, UniProt P47871); test: cAMP production (HTRF) in CHO cells expressing hGCGR; type: cell-based; design: expressed in transfected cells; conditions: Table 7, peptides modified at position 20; cAMP in CHO hGCGR cells; geometric mean; read-out: hGluc-R EC50
# Sequence of human glucagon receptor (hGCGR) (P47871 26-477): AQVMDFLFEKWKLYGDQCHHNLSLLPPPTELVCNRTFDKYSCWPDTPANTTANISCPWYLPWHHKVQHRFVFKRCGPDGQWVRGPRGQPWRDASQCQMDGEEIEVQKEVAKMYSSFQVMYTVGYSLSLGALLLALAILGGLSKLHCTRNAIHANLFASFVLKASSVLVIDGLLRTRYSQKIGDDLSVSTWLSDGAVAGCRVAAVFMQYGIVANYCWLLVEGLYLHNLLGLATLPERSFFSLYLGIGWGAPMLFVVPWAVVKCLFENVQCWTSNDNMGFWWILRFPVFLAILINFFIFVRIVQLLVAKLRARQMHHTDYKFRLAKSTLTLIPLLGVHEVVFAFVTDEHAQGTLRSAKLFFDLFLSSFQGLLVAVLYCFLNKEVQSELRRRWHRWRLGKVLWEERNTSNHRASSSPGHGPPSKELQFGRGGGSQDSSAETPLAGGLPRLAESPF
# Procedure, shortened: as §1
Compound,EC50 [1],% Relative Potency Ratio [1],EC50 [2]
CC[C@H](C)[C@H](NC(=O)[C@H](Cc1c[nH]c2ccccc12)NC(=O)[C@H](CCC(N)=O)NC(=O)[C@@H](NC(=O)[C@H](Cc1ccccc1)NC(=O)[C@H](CC(=O)O)NC(=O)[C@H](CCCCNC(=O)COCCOCCNC(=O)COCCOCCNC(=O)CC[C@H](NC(=O)CCCCCCCCCCCCCCCCC(=O)O)C(=O)O)NC(=O)[C@H](C)NC(=O)[C@H](C)NC(=O)[C@H](CCCNC(=N)N)NC(=O)[C@H](CCC(=O)O)NC(=O)[C@H](CC(=O)O)NC(=O)[C@H](CC(C)C)NC(=O)[C@](C)(Cc1ccccc1)NC(=O)[C@H](CCCCN)NC(=O)[C@H](CO)NC(=O)[C@@H](NC(=O)[C@H](CC(=O)O)NC(=O)[C@H](CO)NC(=O)[C@@H](NC(=O)[C@H](Cc1ccccc1)NC(=O)[C@@H](NC(=O)CNC(=O)[C@H](CCC(N)=O)NC(=O)C(C)(C)NC(=O)[C@@H](N)Cc1c[nH]cn1)[C@@H](C)O)[C@@H](C)O)C(C)C)C(C)C)C(=O)N[C@@H](C)C(=O)N[C@@H](CC(N)=O)C(=O)N[C@H](C(N)=O)[C@@H](C)O [Peptide 309],0.0706 nM,486.8,17.4 nM
CC(C)C[C@H](NC(=O)[C@H](Cc1c[nH]c2ccccc12)NC(=O)[C@H](CCC(N)=O)NC(=O)[C@@H](NC(=O)[C@H](Cc1ccccc1)NC(=O)[C@H](CC(=O)O)NC(=O)[C@H](CCCCNC(=O)COCCOCCNC(=O)COCCOCCNC(=O)CC[C@H](NC(=O)CCCCCCCCCCCCCCCCC(=O)O)C(=O)O)NC(=O)[C@H](C)NC(=O)[C@H](C)NC(=O)[C@H](CCCNC(=N)N)NC(=O)[C@H](CO)NC(=O)[C@H](CC(=O)O)NC(=O)[C@H](CC(C)C)NC(=O)[C@](C)(Cc1ccccc1)NC(=O)[C@H](CCCCN)NC(=O)[C@H](CO)NC(=O)[C@@H](NC(=O)[C@H](CC(=O)O)NC(=O)[C@H](CO)NC(=O)[C@@H](NC(=O)[C@H](Cc1ccccc1)NC(=O)[C@@H](NC(=O)CNC(=O)[C@H](CCC(N)=O)NC(=O)C(C)(C)NC(=O)[C@@H](N)Cc1c[nH]cn1)[C@@H](C)O)[C@@H](C)O)C(C)C)C(C)C)C(=O)N[C@@H](CCC(=O)O)C(=O)N[C@@H](C)C(=O)NCC(=O)NCC(N)=O [Peptide 310],0.0564 nM,64.4,1.84 nM
CC(C)C[C@H](NC(=O)[C@H](Cc1c[nH]c2ccccc12)NC(=O)[C@H](CCC(N)=O)NC(=O)[C@@H](NC(=O)[C@H](Cc1ccccc1)NC(=O)[C@H](CC(=O)O)NC(=O)[C@H](CCCCNC(=O)COCCOCCNC(=O)COCCOCCNC(=O)CC[C@H](NC(=O)CCCCCCCCCCCCCCCCC(=O)O)C(=O)O)NC(=O)[C@H](C)NC(=O)[C@H](CCCNC(=N)N)NC(=O)[C@H](CCCNC(=N)N)NC(=O)[C@H](CO)NC(=O)[C@H](CC(=O)O)NC(=O)[C@H](CC(C)C)NC(=O)[C@](C)(Cc1ccccc1)NC(=O)[C@H](CCCCN)NC(=O)[C@H](CO)NC(=O)[C@H](Cc1ccc(O)cc1)NC(=O)[C@H](CC(=O)O)NC(=O)[C@H](CO)NC(=O)[C@@H](NC(=O)[C@H](Cc1ccccc1)NC(=O)[C@@H](NC(=O)CNC(=O)[C@H](CCC(N)=O)NC(=O)C(C)(C)NC(=O)[C@@H](N)Cc1c[nH]cn1)[C@@H](C)O)[C@@H](C)O)C(C)C)C(=O)N[C@H](C(=O)NCCOCCOCCOCCOCCC(N)=O)C(C)C [Peptide 312] (H-H[Aib]QGTFTSDYSK[αMeF]LDSRRAK([AEEA-AEEA-γGlu-C18 diacid])DFVQWLV[PEG4]-NH2; N-terminus assumed),0.152 nM,36.1,2.78 nM
CC(C)C[C@H](NC(=O)[C@H](Cc1c[nH]c2ccccc12)NC(=O)[C@H](CCC(N)=O)NC(=O)[C@@H](NC(=O)[C@H](Cc1ccccc1)NC(=O)[C@H](CC(=O)O)NC(=O)[C@H](CCCCNC(=O)COCCOCCNC(=O)COCCOCCNC(=O)CC[C@H](NC(=O)CCCCCCCCCCCCCCCCC(=O)O)C(=O)O)NC(=O)[C@H](C)NC(=O)C(C)(C)NC(=O)[C@H](CCCNC(=N)N)NC(=O)[C@H](CO)NC(=O)[C@H](CC(=O)O)NC(=O)[C@H](CC(C)C)NC(=O)[C@](C)(Cc1ccccc1)NC(=O)[C@H](CCCCN)NC(=O)[C@H](CO)NC(=O)[C@@H](NC(=O)[C@H](CC(=O)O)NC(=O)[C@H](CO)NC(=O)[C@@H](NC(=O)[C@H](Cc1ccccc1)NC(=O)[C@@H](NC(=O)CNC(=O)[C@H](CCC(N)=O)NC(=O)C(C)(C)NC(=O)[C@@H](N)Cc1c[nH]cn1)[C@@H](C)O)[C@@H](C)O)C(C)C)C(C)C)C(=O)N[C@@H](CC(C)C)C(=O)N[C@@H](CC(N)=O)C(=O)N[C@H](C(=O)O)[C@@H](C)O [Peptide 313],0.138 nM,17.6,1.23 nM

# The next molecules have a lower EC50 [1] than those just listed; values first:
EC50 [1],% Relative Potency Ratio [1],EC50 [2],Compound
0.0275 nM,123.4,1.72 nM,CC[C@H](C)[C@H](NC(=O)[C@H](Cc1c[nH]c2ccccc12)NC(=O)[C@H](CCC(N)=O)NC(=O)[C@@H](NC(=O)[C@H](Cc1ccccc1)NC(=O)[C@H](CC(=O)O)NC(=O)[C@H](CCCCNC(=O)COCCOCCNC(=O)COCCOCCNC(=O)CC[C@H](NC(=O)CCCCCCCCCCCCCCCCC(=O)O)C(=O)O)NC(=O)[C@H](C)NC(=O)[C@H](C)NC(=O)[C@H](CCCNC(=N)N)NC(=O)[C@@H](NC(=O)[C@H](CC(=O)O)NC(=O)[C@H](CC(C)C)NC(=O)[C@](C)(Cc1ccccc1)NC(=O)[C@H](CCCCN)NC(=O)[C@H](CO)NC(=O)[C@@H](NC(=O)[C@H](CC(=O)O)NC(=O)[C@H](CO)NC(=O)[C@@H](NC(=O)[C@H](Cc1ccccc1)NC(=O)[C@@H](NC(=O)CNC(=O)[C@H](CCC(N)=O)NC(=O)C(C)(C)NC(=O)[C@@H](N)Cc1c[nH]cn1)[C@@H](C)O)[C@@H](C)O)C(C)C)[C@@H](C)O)C(C)C)C(=O)N[C@@H](C)C(=O)N[C@@H](CC(N)=O)C(=O)N[C@H](C(N)=O)[C@@H](C)O [Peptide 308] (H-H[Aib]QGTFTSDVSK[αMeF]LDTRAAK([AEEA-AEEA-γGlu-C18 diacid])DFVQWIANT-NH2; N-terminus assumed)
0.0351 nM,26.4,0.469 nM,CC(C)C[C@H](NC(=O)[C@H](Cc1c[nH]c2ccccc12)NC(=O)[C@H](CCC(N)=O)NC(=O)[C@@H](NC(=O)[C@H](Cc1ccccc1)NC(=O)[C@H](CC(=O)O)NC(=O)[C@H](CCCCNC(=O)COCCOCCNC(=O)COCCOCCNC(=O)CC[C@H](NC(=O)CCCCCCCCCCCCCCCCC(=O)O)C(=O)O)NC(=O)[C@H](C)NC(=O)[C@H](C)NC(=O)[C@H](CCCNC(=N)N)NC(=O)[C@H](CO)NC(=O)[C@H](CC(=O)O)NC(=O)[C@H](CC(C)C)NC(=O)[C@](C)(Cc1ccccc1)NC(=O)[C@H](CCCCN)NC(=O)[C@H](CO)NC(=O)[C@@H](NC(=O)[C@H](CC(=O)O)NC(=O)[C@H](CO)NC(=O)[C@@H](NC(=O)[C@H](Cc1ccccc1)NC(=O)[C@@H](NC(=O)CNC(=O)[C@H](CCC(N)=O)NC(=O)C(C)(C)NC(=O)[C@@H](N)Cc1c[nH]cn1)[C@@H](C)O)[C@@H](C)O)C(C)C)C(C)C)C(=O)N[C@H](C(=O)N[C@@H](CCC(=O)O)C(=O)N[C@H](C(N)=O)[C@@H](C)O)C(C)C [Peptide 311]
0.0308 nM,439.3,6.83 nM,CC(C)C[C@H](NC(=O)C(C)(C)NC(=O)[C@H](CCC(N)=O)NC(=O)[C@@H](NC(=O)[C@H](Cc1ccccc1)NC(=O)[C@H](CC(=O)O)NC(=O)[C@H](CCCCNC(=O)COCCOCCNC(=O)COCCOCCNC(=O)CC[C@H](NC(=O)CCCCCCCCCCCCCCCCC(=O)O)C(=O)O)NC(=O)[C@H](C)NC(=O)C(C)(C)NC(=O)[C@H](CCCNC(=N)N)NC(=O)[C@H](CO)NC(=O)[C@H](CC(=O)O)NC(=O)[C@H](CC(C)C)NC(=O)[C@](C)(Cc1ccccc1)NC(=O)[C@H](CCCCN)NC(=O)[C@H](CO)NC(=O)[C@@H](NC(=O)[C@H](CC(=O)O)NC(=O)[C@H](CO)NC(=O)[C@@H](NC(=O)[C@H](Cc1ccccc1)NC(=O)[C@@H](NC(=O)CNC(=O)[C@H](CCC(N)=O)NC(=O)C(C)(C)NC(=O)[C@@H](N)Cc1c[nH]cn1)[C@@H](C)O)[C@@H](C)O)C(C)C)C(C)C)C(=O)N[C@H](C(=O)N[C@@H](C)C(=O)N[C@H](C(N)=O)[C@@H](C)O)C(C)C [Peptide 314] (H-H[Aib]QGTFTSDVSK[αMeF]LDSR[Aib]AK([AEEA-AEEA-γGlu-C18 diacid])DFVQ[Aib]LVAT-NH2; N-terminus assumed)
0.0181 nM,639.1,5.85 nM,CC(C)C[C@H](NC(=O)C(C)(C)NC(=O)[C@H](CCC(N)=O)NC(=O)[C@@H](NC(=O)[C@H](Cc1ccccc1)NC(=O)[C@H](CC(=O)O)NC(=O)[C@H](CCCCNC(=O)COCCOCCNC(=O)COCCOCCNC(=O)CC[C@H](NC(=O)CCCCCCCCCCCCCCCCC(=O)O)C(=O)O)NC(=O)[C@H](C)NC(=O)[C@H](C)NC(=O)[C@H](CCCNC(=N)N)NC(=O)[C@H](CO)NC(=O)[C@H](CC(=O)O)NC(=O)[C@H](CC(C)C)NC(=O)[C@](C)(Cc1ccccc1)NC(=O)[C@H](CCCCN)NC(=O)[C@H](CO)NC(=O)[C@@H](NC(=O)[C@H](CC(=O)O)NC(=O)[C@H](CO)NC(=O)[C@@H](NC(=O)[C@H](Cc1ccccc1)NC(=O)[C@@H](NC(=O)CNC(=O)[C@H](CCC(N)=O)NC(=O)C(C)(C)NC(=O)[C@@H](N)Cc1c[nH]cn1)[C@@H](C)O)[C@@H](C)O)C(C)C)C(C)C)C(=O)N[C@H](C(=O)N[C@@H](C)C(=O)N[C@H](C(N)=O)[C@@H](C)O)C(C)C [Peptide 315]
